Source: patent US20260358340A1, “MATRIX METALLOPROTEINASE 13 SENSITIVE PEPTIDES AND SENSORS” (Julius-Maximilians-Universitaet Wuerzburg, priority 2023, published 2026)

Key:
Format in all cases: biochemical
Details in all cases: role: inhibitor; substrate FRET peptide
MMP13 = MMP13 (Homo sapiens, UniProt P45452); experiment: FRET peptide cleavage assay, MMP13 activity and its inhibition
Source text: (§1) A possible application of the peptides is the analysis of protease activity and the effect of substances on it. This can be utilized for understanding the role of proteases in physiological and pathological processes as well as for targeting proteases for disease diagnosis or treatment. […] 7-Methoxycoumain-4-acetic acid (Mca) is a is a fluorescent dye with an excitation peak at 322 nm and an emission peak at 381 nm. The absorbance spectrum of 2,4-dinitrophenyl (Dnp) overlaps with the emission spectrum of Mca, therefore it acts as a quencher. As long as both are in close proximity (up to about 5-10 nm), excitation of Mca leads to energy transfer to Dnp. Separation of the fluorophore-quencher pair by hydrolysis of the protease-specific cleavage site between both compounds liberates the fluorescence signal and the rise in its intensity can easily be monitored overtime.

MMP9 = MMP9 (Homo sapiens, UniProt P14780); experiment: FRET peptide cleavage assay, MMP9 activity and its inhibition
Source text: as §1, with “overtime. This method is sensitive and time efficient. It allows quantitative assessment of enzymatic activity and the developed fluorogenic substrates are suitable for high throughput screening, for example of protease inhibitors.” for “overtime.”

MMP8 = MMP8 (Homo sapiens, UniProt P22894); experiment: FRET peptide cleavage assay, MMP8 activity and its inhibition
Source text: as §1, with “overtime. This method is sensitive and time efficient. It allows quantitative assessment of enzymatic activity and the developed fluorogenic substrates are suitable for high throughput screening, for example of protease inhibitors.” for “overtime.”

MMP8, sequence (P22894 101-467): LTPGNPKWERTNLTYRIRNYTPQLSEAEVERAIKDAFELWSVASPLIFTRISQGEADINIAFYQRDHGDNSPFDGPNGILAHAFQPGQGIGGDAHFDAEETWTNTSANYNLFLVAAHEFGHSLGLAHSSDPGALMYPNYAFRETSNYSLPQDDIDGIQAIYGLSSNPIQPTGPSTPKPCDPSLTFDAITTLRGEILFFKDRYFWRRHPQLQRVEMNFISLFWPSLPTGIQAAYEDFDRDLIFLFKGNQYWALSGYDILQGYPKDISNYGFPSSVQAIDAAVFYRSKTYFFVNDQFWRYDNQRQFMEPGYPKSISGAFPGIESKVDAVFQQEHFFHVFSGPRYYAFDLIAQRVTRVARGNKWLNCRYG
MMP9, sequence (P14780 94-707): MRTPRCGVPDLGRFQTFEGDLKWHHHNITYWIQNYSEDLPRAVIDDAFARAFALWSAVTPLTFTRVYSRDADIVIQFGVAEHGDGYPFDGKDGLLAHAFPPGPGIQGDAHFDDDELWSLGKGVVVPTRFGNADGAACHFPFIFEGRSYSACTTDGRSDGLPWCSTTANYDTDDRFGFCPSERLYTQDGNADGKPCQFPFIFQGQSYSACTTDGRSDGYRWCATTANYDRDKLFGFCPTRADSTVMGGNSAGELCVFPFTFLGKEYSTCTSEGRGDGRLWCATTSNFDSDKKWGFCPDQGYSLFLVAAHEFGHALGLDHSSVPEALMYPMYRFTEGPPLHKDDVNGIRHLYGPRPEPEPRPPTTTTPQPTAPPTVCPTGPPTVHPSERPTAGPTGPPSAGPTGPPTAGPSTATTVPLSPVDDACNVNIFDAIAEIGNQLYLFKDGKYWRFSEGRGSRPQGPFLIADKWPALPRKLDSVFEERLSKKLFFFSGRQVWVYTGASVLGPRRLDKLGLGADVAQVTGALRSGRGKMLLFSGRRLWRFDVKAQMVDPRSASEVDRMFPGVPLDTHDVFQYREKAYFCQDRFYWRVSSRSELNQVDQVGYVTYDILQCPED

Row | SMILES | loss of MMP13 activity (MMP13) | loss of MMP9 activity (MMP9) | loss of MMP8 activity (MMP8)
1 | O=C(O)CN(CCN(CC(=O)O)CC(=O)O)CC(=O)O [EDTA] | complete loss | complete loss | complete loss
2 | CNC(=O)[C@@H](NC(=O)[C@H](CC(C)C)[C@H](O)C(=O)NO)C(C)(C)C [Marimastat] |  | complete loss | complete loss
3 | CCCCCCCCCCCCOS(=O)(=O)[O-].[Na+] [SDS] | complete loss | complete loss | complete loss
